PubChem BioAssay (NCI)
Values joined by “and” are separate entries in the source; they are usually repeats but may differ in a detail not shown here. Equal entries are not always repeated.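 These data come from cells grown in 96-well plates and exposed to compound for 48 hours at five concentrations. Abbreviation: GI50, concentration required for 50% inhibition of growth. TGI denotes the concentration required for complete inhibition of growth.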

Tested on: MDA-MB-468 breast
Test: NCI anticancer screen, dose series, 48 h

Structure (SMILES) | GI50 | TGI [nM]
CC(=O)O[C@H]1C(=O)[C@@]2(C)[C@H]([C@H](OC(=O)c3ccccc3)[C@]3([O-])C[C@H](OC(=O)[C@H]([O-])[C@@H](NC(=O)c4ccccc4)c4ccccc4)C(C)=C1C3(C)C)[C@]1(OC(C)=O)CO[C@@H]1C[C@@H]2[O-].[Fe+3] | 35.1 nM and 36.3 nM | 
CN1CCN(Cc2ccc(NC(=O)c3ccc(C(C)(C)C)c(C#Cc4cnc5cccnn45)c3)cc2C(F)(F)F)CC1 | 1980 nM | 3770
CCOC(=O)[C@@H](C)C[C@H](Cc1ccccc1)NC(=O)c1csc([C@@H](C[C@H](C(C)C)N(C)C(=O)[C@@H](NC(=O)[C@H]2CCCCN2C)C(C)(C)C)OC(C)=O)n1 | < 1.67 nM | 75.2
C=CCOc1c(Br)cc(Br)cc1Br | 26400 nM | > 100000
Cc1sc(C)c(-c2ccc(CO)o2)c1-c1ccc(CO)o1 | 17.8 nM | 50.1
CCN(Cc1c(F)cccc1F)c1ccc(CO)c(Cl)c1 | 14.8 nM | 33
CN(C)CCCNc1c2ccc(Cl)cc2nc2c1oc1ccccc12 | 3320 nM | 14000
CNC(=O)c1ccc(-c2cnc3ncc(Cc4ccc5ncccc5c4)n3n2)cc1F | 92300 nM | > 100000
CCCSc1cc(Cl)nc(N)n1 | 85800 nM | > 100000
C=C1C(=O)O[C@H]2[C@H]1CC/C(COC(=O)c1cc3cc(OC)ccc3[nH]1)=C\CC[C@@]1(C)O[C@@H]21 | 1130 nM | 2850
CC(=O)n1c(-c2ccc(Cl)cc2)nc2c(c1=O)C(c1ccc(Cl)cc1)c1sc3c(Cl)cccc3c1O2 (stereo not given) | 225 nM | 560
CC(=O)Nc1cc(F)cc(-c2ccc3[nH]cc(-c4ccccc4)c3n2)c1 | 2090 nM | 6400
CN(C)c1nc(-c2cccs2)n2nc(-c3ccc(Cl)cc3)cc2n1 | 3100 nM | > 100000
CCCS(=O)(=O)c1nc(NC2CC2)cc(-c2ccc3c(ccn3C3CC(C)(C)NC(C)(C)C3)c2)n1 | 1750 nM | 3610
CNC(=O)c1cc(Oc2ccc(NC(=O)Nc3ccc(Cl)c(OC(F)(F)F)c3)c(F)c2)ccn1 | 1020 nM | 4770
CS(=O)(=O)Nc1ccc(-c2ccc3c(NC(=O)C4CC4)n[nH]c3c2)cc1 | 7200 nM | > 23700
CCCCCC(=O)Oc1ccc(/C(=C(\C)c2ccc(OC)cc2)c2ccc(OCCN3CCCCC3)cc2)cc1 | 4020 nM | 15800
CCN(CCO)CCNc1ccc(C)c2sc3cc(Cl)ccc3c(=O)c12 | 1290 nM | 2780
